This is an account of results in patent US8895585B2, “Nicotinamide derivative or salt thereof” (FUJIFILM Corporation, priority 2010, dated 2014).

In the assay the target is T1, glutathione S-transferase (GST)-fused full-length human Syk protein (Homo sapiens, UniProt P43405).
T1 construct: (GST)-fused full-length human Syk protein; GST (glutathione S-transferase); purchased Carna Biosciences
The assay is described as follows: Syk enzyme assay. The format is biochemical. As to conditions: Syk enzyme assay, Test Example 1; read-out: IC50 of Syk-inhibitory activity. The method, boiled down: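 Baculovirus-expressed enzyme (1.2 ng) was preincubated with compound in HEPES pH 7.0/MgCl2/DTT buffer, 2 min shaking then 13 min at room temperature. Biotin-EDPDYEWPSA-NH2 (0.4 μM final) and ATP (27 μM final) were added for 40 min at room temperature. EDTA stop, streptavidin-XL/PT66-K TR-FRET at 615/665 nm gave IC50.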

By IC50 is commonly meant the midpoint of a concentration-inhibition curve.

With `CCOc1cnc2cc(Nc3nc(N[C@@H]4CCCC[C@@H]4N)c(F)cc3C(N)=O)ccc2n1` (relative stereo) [Example 004-176, 6-(cis-2-aminocyclohexylamino)-2-((2-ethoxyquinoxalin-6-yl)amino)-5-fluoronicotinamide], the half-maximal inhibitory concentration (IC50) was under 10 nM.

Regarding `CC(C)COc1ccccc1-c1cncc(Nc2nc(N[C@@H]3CCCC[C@@H]3N)c(F)cc2C(N)=O)c1` (relative stereo) [Example 004-183, 6-(cis-2-aminocyclohexylamino)-5-fluoro-2-((5-(2-isobutoxyphenyl)pyridin-3-yl)amino)-nicotinamide], the half-maximal inhibitory concentration (IC50) fell in the range of 50 to 100 nM.

As to `COc1ncc(Nc2nc(NC3CCCCC3N)c(F)cc2C(N)=O)cc1-n1cccn1` (stereo not drawn) [Example 002-154], the half-maximal inhibitory concentration (IC50) lay within 10 to 50 nM.

With `COc1ccc2cc(Nc3nc(NC4CCCCC4N)c(F)cc3C(N)=O)ccc2n1` (stereo not drawn) [Example 002-101], the IC50 was under 10 nM.

In the case of `Cc1cc(Nc2nc(NC3CCCCC3N)c(F)cc2C(N)=O)c(F)cn1` (stereo not drawn) [Example 002-164], the IC50 lay in the range of 50 to 100 nM.

Regarding `NC[C@@H](Nc1nc(Nc2ccc3ncccc3c2)c(C(N)=O)cc1F)c1ccccn1` [Example 39-5, (R)-6-((2-amino-1-(pyridin-2-yl)ethyl)amino)-5-fluoro-2-((quinolin-6-yl)amino)nicotinamide], the concentration for half-maximal inhibition (IC50) lay within 50 to 100 nM.

For `NC(=O)c1cc(F)c(NC2CCCCC2N)nc1Nc1cccc(Cl)c1` (stereo not drawn) [Example 008-008], the IC50 is under 10 nM.

Turning to `CC[C@@H](Nc1nc(Nc2ccc3c(cnn3CC(F)F)c2)c(C(N)=O)cc1F)[C@H](C)N` [Example 006-423, 6-(((2S,3R)-2-aminopentan-3-yl)amino)-2-((1-(2,2-difluoroethyl)-1H-indazol-5-yl)amino)-5-fluoronicotinamide], the IC50 lay in the range of 10 to 50 nM.

In the case of `NC(=O)c1cc(F)c(NC2CCCCC2N)nc1Nc1cncc(NC(=O)c2ccc(Cl)cc2Cl)c1` (stereo not drawn) [Example 027-018], the concentration for half-maximal inhibition (IC50) lay within 50 to 100 nM.

Turning to `COCCn1cc2ccc(Nc3nc(NC4CCCCC4N)c(F)cc3C(N)=O)cc2n1` (stereo not drawn) [Example 002-044], the IC50 was in the range of 10 to 50 nM.

For `C[C@H](N)[C@H](C)Nc1nc(Nc2ccc3ncccc3c2)c(C(N)=O)cc1F` [Example 006-202, 6-(((2S,3S)-3-aminobutan-2-yl)amino)-5-fluoro-2-((quinolin-6-yl)amino)nicotinamide], the 50% inhibitory concentration (IC50) was in the range of 50 to 100 nM.

As for `COc1ccc(-c2cc(Nc3nc(N[C@@H](CN)CC(C)C)c(F)cc3C(N)=O)ccn2)c(F)c1` [Example 006-328, (R)-6-((1-amino-4-methylpentan-2-yl)amino)-5-fluoro-2-((2-(2-fluoro-4-methoxyphenyl)pyridin-4-yl)amino)nicotinamide], the concentration for half-maximal inhibition (IC50) was under 10 nM.

Take `NC(=O)c1cc(F)c(N[C@@H]2CCCC[C@@H]2N)nc1Nc1ccc2[nH]ccc2c1` (relative stereo) [Example 004-070, 2-((1H-indol-5-yl)amino)-6-(cis-2-aminocyclohexylamino)-5-fluoronicotinamide]: the IC50 is under 10 nM.

As to `NC(=O)c1cc(F)c(N[C@@H]2CCCC[C@@H]2N)nc1Nc1cnc(N2CCOCC2)c(-n2cccn2)c1` [Example 006-527, 6-(((1R,2S)-2-aminocyclohexyl)amino)-5-fluoro-2-((6-morpholino-5-(1H-pyrazol-1-yl)pyridin-3-yl)amino)nicotinamide], the 50% inhibitory concentration (IC50) lay in the range of 50 to 100 nM.

Take `COc1ncc(Nc2nc(NC3CCCCC3N)c(F)cc2C(N)=O)cc1C` (stereo not drawn) [Example 002-152]: the IC50 is 10 to 50 nM.

Take `NC(=O)c1cc(F)c(NC2CCCCC2N)nc1Nc1ccc2cc(-n3cccn3)cnc2c1` (stereo not drawn) [Example 002-143]: the IC50 was under 10 nM.

For `NC(=O)c1cc(F)c(N[C@@H]2CCCC[C@@H]2N)nc1Nc1cncc(N2CCCC2=O)c1` [Example 004-107], the IC50 is 10 to 50 nM.

With `COCCOc1ncc(Nc2nc(N[C@@H]3CCCC[C@@H]3N)c(F)cc2C(N)=O)cc1N1CCOCC1` [Example 006-566, 6-(((1R,2S)-2-aminocyclohexyl)amino)-5-fluoro-2-((6-(2-methoxyethoxy)-5-morpholinopyridin-3-yl)amino)nicotinamide], the IC50 was 100 to 1000 nM.
